“And” between values parts separate entries of the source, which are not always exact repeats. Equal values may be shown once. Read-outs that look alike come from different tables or passages of the source.

Data set [1] deals with patients with solid tumors. Details: method as in Wong et al 27. The following applies: monotherapy 180mg, N=6; cell as count (percent), ref Wong et al 27; cited from earlier work.
For the next data set, the system named is P-glycoprotein (P-gp). Details: method as in PMID 34664792. The following applies: digoxin = P-gp substrate; cited from earlier work.
The nature of data set [2]: Plasma pharmacokinetics of neratinib and trametinib co-administered, cycle 1 day 15 (LC/MS, noncompartmental). It counts as in vivo, human. To be noted: for Tmax / Ctau or C24 (trough concentration) / Half-life: plasma; for Ctau or C24 (trough concentration): mean (range) in Table 4; for Oral CLss (oral clearance at steady state): mean (range) in Table 4, mean ± spread in text.

The conditions of data set [3]: cited from earlier work.
The subject of the next data set is patients. The following applies: cited from earlier work.
[4] abbreviates: co-administered at dose level minus 1 (160 mg neratinib daily with 1 mg trametinib 5 days on and 2 days off), cycle 1 day 15, 8 patients.
Where [5] appears, read: single agent trametinib 2 mg, 13 patients, mean (range), ref Infante et al. 32.
[6] abbreviates: single agent trametinib 2.5 mg, 16 patients, mean (range), ref Infante et al. 32.
Where [7] appears, read: single agent trametinib 3 mg, 16 patients, mean (range), ref Infante et al. 32.
Setting [8] is: monotherapy 1mg, N=2, ref Infante et al 32.
Setting [9] is: monotherapy 2mg, N=70, cell as count (percent), ref Infante et al 32.

As for `CCOc1cc2ncc(C#N)c(Nc3ccc(OCc4ccccn4)c(Cl)c3)c2cc1NC(=O)/C=C/CN(C)C` [neratinib], in data set [1], the “Grade > 3 TRAE: Diarrhea” value is recorded as 1 (17), the “Grade > 3 TRAE: Fatigue” value is given as 1 (17), the “Grade > 3 TRAE: Nausea” value is recorded as 0 and the “Grade > 3 TRAE: Rash” value is given as 0. Further, in data set [1], the “Grade > 3 TRAE: Vomiting” value is reported as 0, the “TRAE of all grades: Anorexia” value is listed as 1 (17), the “TRAE of all grades: Diarrhea” value is reported as 6 (100) and the “TRAE of all grades: Fatigue” value is given as 4 (67). Further, in data set [1], the “TRAE of all grades: Nausea” value is given as 3 (50), the “TRAE of all grades: Rash” value is given as 1 (17) and the “TRAE of all grades: Vomiting” value is listed as 2 (33). In the data set with P-glycoprotein (P-gp), the “increase of digoxin AUC” value is 32% and the “increase of digoxin plasma concentrations (Cmax)” value is given as 54%. In data set [2] (PK cohort, co-administered with trametinib), the “changes in neratinib PKs compared to existing single agent PK data (in words)” value is “no observed changes”. Also, the Tmax in data set [2] (co-administered at dose level minus 1 (160 mg neratinib daily with 1 mg trametinib 5 days on and 2 days off), cycle 1 day 15, 8 patients, mean (range)) is given as 5.8 (3–8) h. Besides, in data set [2] (setting [4]), the “Ctau or C24 (trough concentration)” value was 43.99 (3.4–93) ng/mL and the “Oral CLss (oral clearance at steady state)” value (“Oral CLss” for short) was 76.7 ± 16.9 L/h. For the same molecule, the “Oral CLss” value in data set [2] (co-administered at dose level minus 1 (160 mg neratinib daily with 1 mg trametinib 5 days on and 2 days off), cycle 1 day 15, 8 patients, listed as Neratinib) was 76.7 (56.5–93.5) L/h. For the same molecule, the “AR (accumulation ratio)” value in data set [2] (co-administered at dose level minus 1 (160 mg neratinib daily with 1 mg trametinib 5 days on and 2 days off), day 15, 8 patients, mean (range)) is 1.67 (1.19–2.16). Also, the Half-life in data set [2] (human, oral) was 18 h. Besides, in data set [2] (human, oral, read-out: Tmax), the Tmax is about 6 h.
Consider `CC(=O)Nc1cccc(-n2c(=O)n(C3CC3)c(=O)c3c(Nc4ccc(I)cc4F)n(C)c(=O)c(C)c32)c1` [trametinib], for which the oral clearance in data set [3] (published single agent data) was 3.81 L/h. For the same molecule, in data set [3] (setting [5]), the Cmax was 22.2 (14–32·9) ng/mL, the “Ctau or C24” value is on record as 12.1 (8.26–16.9) ng/mL and the Half-life is on record as 57.6 (4·01–210) h. For the same molecule, in data set [3] (setting [6]), the AUC0-24 was 410 (215–865) ng*h/mL, the “Ctau or C24” value is listed as 15.1 (6.86–40.5) ng/mL and the Half-life was 90.2 (58.4–183) h. Besides, in data set [3] (setting [7]), the AUC0-24 is recorded as 540 (261–968) ng*h/mL, the Cmax is 33.4 (15.6–60.9) ng/mL, the “Ctau or C24” value is listed as 17.9 (7.77–35.5) ng/mL and the Half-life is 86.1 (15.1–291) h. For the same molecule, the Tmax in data set [3] (setting [7]) is 2.05 (0.5–10.0) h. In data set [2] (setting [4]), the “Ctau or C24 (trough concentration)” value is reported as 27.8 (8.5–42.2) ng/mL; the “Oral CLss” value was 1.55 ± 0.63 L/h and 1.55 L/h. The “Oral CLss” value in data set [2] (co-administered at dose level minus 1 (160 mg neratinib daily with 1 mg trametinib 5 days on and 2 days off), cycle 1 day 15, 8 patients, listed as Trametinib) was 1.55 (0.95–2.4) L/h. In addition, in data set [2] (human, oral), the Half-life was 52 h. The Tmax in data set [2] (human, oral, read-out: Tmax) was 5.6 h. For the same molecule, the “trametinib clearance when co-administered with neratinib (in words)” value in data set [2] (vs published single agent data) is on record as “significantly reduced”. In the data set on patients (setting [8]), the “Grade > 3 TRAE: Fatigue” value was 0 and the “Grade > 3 TRAE: Nausea” value is 0. Moreover, in the data set on patients (setting [9]), the “TRAE of all grades: Mucositis” value is 3 (4), the “TRAE of all grades: Nausea” value is 18 (26) and the “TRAE of all grades: Vomiting” value was 9 (13).

The values are drawn from article PMC10326142 (Cancer Chemotherapy and Pharmacology, 2023).
